Laboratory results: publication PMC5648786, “Characterization of a dual function macrocyclase enables design and use of efficient macrocyclization substrates” (Nature Communications, 2017)
Several values for one entry are separate records, joined by “and”; a condition that tells them apart may be missing. Identical values can stand only once. No end group written: not given here.

Legend:
[1] = biological target: T1, GmPOPB-S577A (inactive mutant) (Galerina marginata, UniProt H2E7Q8, S577A); assay: Isothermal titration calorimetry, peptide binding to inactive mutant GmPOPB_S577A; settings: for -TΔS / ΔG / ΔH / Kd: ITC, 20 °C; for -TΔS / ΔG / ΔH: average ± SEM; for Kd: peptide titrated into GmPOPB_S577A, 50 mM Tris pH 8.0, 50 mM NaCl, 10 mM DTT, single-site model, n fixed at 1.0, average ± SEM of at least 2 measurements
T1 construct: His-tag (TEV-cleavable) (cleaved yes); made in house; host or cells: E. coli BL21(DE3)
T1 sequence (H2E7Q8 1-730 S577A): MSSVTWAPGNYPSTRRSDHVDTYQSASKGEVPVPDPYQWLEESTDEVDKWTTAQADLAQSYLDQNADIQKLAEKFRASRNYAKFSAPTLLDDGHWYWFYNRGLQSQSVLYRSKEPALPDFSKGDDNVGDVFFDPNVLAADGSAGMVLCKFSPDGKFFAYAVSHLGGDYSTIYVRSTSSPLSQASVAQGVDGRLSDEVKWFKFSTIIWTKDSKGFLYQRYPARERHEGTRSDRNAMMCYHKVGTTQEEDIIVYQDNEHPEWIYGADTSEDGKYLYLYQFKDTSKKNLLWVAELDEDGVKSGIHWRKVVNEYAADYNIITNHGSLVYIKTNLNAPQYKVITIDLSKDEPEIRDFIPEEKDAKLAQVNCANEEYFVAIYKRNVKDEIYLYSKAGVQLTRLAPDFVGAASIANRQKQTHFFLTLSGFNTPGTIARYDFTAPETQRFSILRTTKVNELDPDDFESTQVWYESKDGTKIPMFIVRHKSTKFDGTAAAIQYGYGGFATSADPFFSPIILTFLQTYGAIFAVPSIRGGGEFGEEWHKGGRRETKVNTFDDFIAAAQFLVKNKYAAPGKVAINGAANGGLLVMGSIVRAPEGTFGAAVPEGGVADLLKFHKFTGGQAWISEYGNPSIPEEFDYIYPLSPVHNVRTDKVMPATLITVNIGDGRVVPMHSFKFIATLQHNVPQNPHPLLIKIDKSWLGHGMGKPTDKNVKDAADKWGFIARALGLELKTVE

[2] = test system: CC[C@H](C)[C@H](N)C(=O)N[C@@H](Cc1c[nH]c2ccccc12)C(=O)NCC(=O)N[C@H](C(=O)NCC(=O)N[C@@H](CS)C(=O)N[C@@H](CC(N)=O)C(=O)N1CCC[C@H]1C(=O)N[C@@H](Cc1c[nH]c2ccccc12)C(=O)N[C@H](C(=O)N[C@@H](C)C(=O)N[C@@H](CCC(=O)O)C(=O)N[C@@H](Cc1c[nH]cn1)C(=O)O)[C@@H](C)O)[C@@H](C)CC; assay: purified protein, by the assay type; settings: pH 8.0
Description: (§1) Comparison between distinct substrates was performed in 50 mM Tris pH 8.0, 50 mM NaCl, 10 mM DTT with varying concentrations of substrates at room temperature. All reactions were performed in duplicates. Reactions were started by adding GmPOPB (50 nM for GmAMA1_C6S, 1 μM for the 13mer and 14mer, and 20 nM for other substrates) to the assay mixture containing buffer and peptide. Reactions were quenched at several time points by adding 50 μL reaction mixture to 20 μL 6% TFA. Reactants were separated from products for quantification by injecting 50 μL of each quenched time point mix onto a ZORBAX SB-C18, 5 µm, 9.4 × 50 mm (Agilent) column connected to an Agilent LC-MS (G6130B Single Quad, Agilent Technologies). Reactants were separated from products using a gradient from H2O containing 0.1% TFA or 0.1% formic acid and 5% acetonitrile to 50% acetonitrile, at 1.5 ml/min for 8 min. […] The sum of product+substrate was assumed equal to the total initial amount of substrate, product converted from % to concentration. This value was divided by concentration of enzyme present to yield v/E t (min^−1). […] For progress curves with the 35mer substrate, measurements were triplicate and quantification relied on ion counts from mass spectrometry. […] Authentic cyclic peptide was quantified by UV absorbance. […] Kinetic data were fitted to a Michaelis–Menten equation using GraphPad Prism, and values reported are average and standard error of the mean.

[3] = test system: CC[C@H](C)[C@H](NC(=O)CNC(=O)[C@H](Cc1c[nH]c2ccccc12)NC(=O)[C@@H](NC(=O)[C@@H]1CCCN1C(=O)[C@H](CC(C)C)NC(=O)[C@H](CCCNC(=N)N)NC(=O)[C@@H](NC(=O)[C@H](C)NC(=O)[C@H](CC(N)=O)NC(=O)[C@@H](NC(=O)[C@H](CC(=O)O)NC(=O)[C@H](Cc1ccccc1)NC(=O)[C@@H](N)CCSC)[C@@H](C)O)[C@@H](C)O)[C@@H](C)CC)C(=O)NCC(=O)N[C@@H](CS)C(=O)N[C@@H](CC(N)=O)C(=O)N1CCC[C@H]1C(=O)N[C@@H](Cc1c[nH]c2ccccc12)C(=O)N[C@H](C(=O)N[C@@H](C)C(=O)N[C@@H](CCC(=O)O)C(=O)N[C@@H](Cc1c[nH]cn1)C(=O)N[C@H](C(=O)N[C@@H](CC(=O)O)C(=O)N[C@@H](CCC(N)=O)C(=O)N[C@H](C(=O)N[C@@H](CC(C)C)C(=O)N[C@@H](C)C(=O)N[C@@H](CO)C(=O)NCC(=O)N[C@@H](CC(N)=O)C(=O)N[C@@H](CC(=O)O)C(=O)N[C@H](C(=O)N[C@@H](CS)C(=O)O)[C@@H](C)CC)[C@@H](C)O)C(C)C)[C@@H](C)O; assay: purified protein, by the assay type; settings: pH 8.0
Description: as §1

[4] = test system: CC[C@H](C)[C@H](N)C(=O)N[C@@H](Cc1c[nH]c2ccccc12)C(=O)NCC(=O)N[C@H](C(=O)NCC(=O)N[C@@H](CS)C(=O)N[C@@H](CC(N)=O)C(=O)N1CCC[C@H]1C(=O)N[C@@H](Cc1c[nH]c2ccccc12)C(=O)N[C@H](C(=O)N[C@@H](C)C(=O)N[C@@H](CCC(=O)O)C(=O)N[C@@H](Cc1c[nH]cn1)C(=O)N[C@H](C(=O)O)C(C)C)[C@@H](C)O)[C@@H](C)CC; assay: purified protein, by the assay type; settings: pH 8.0
Description: as §1

[5] = Peptide solubility when preparing ITC ligand solutions; assay type: physicochemical; settings: peptide ligand solution for ITC
Description: Supplementary Table 3 Thermodynamic parameters obtained by ITC.
Peptide Sequence Kd (μM) ΔG ΔH -TΔS N
(kcal mol-1) (kcal mol-1) (kcal mol-1) measurements
9mer IW GIGCNPW ND ND ND ND
ND – peptide solubility was lower than 300 μM and measurements could not be
Errors reported are standard error of the mean using the replicates indicated in the
table and the fitted values using Malvern data analysis software.

| Molecule | -TΔS ([1]; GmPOPB_S577A) | ΔG ([1]; GmPOPB_S577A) | ΔH ([1]; GmPOPB_S577A) | Kd [1] | further results |
| --- | --- | --- | --- | --- | --- |
| CC[C@H](C)[C@H](NC(=O)CNC(=O)[C@H](Cc1c[nH]c2ccccc12)NC(=O)[C@@H](NC(=O)[C@@H]1CCCN1C(=O)[C@H](CC(C)C)NC(=O)[C@H](CCCNC(=N)N)NC(=O)[C@@H](NC(=O)[C@H](C)NC(=O)[C@H](CC(N)=O)NC(=O)[C@@H](NC(=O)[C@H](CC(=O)O)NC(=O)[C@H](Cc1ccccc1)NC(=O)[C@@H](N)CCSC)[C@@H](C)O)[C@@H](C)O)[C@@H](C)CC)C(=O)NCC(=O)N[C@@H](CS)C(=O)N[C@@H](CC(N)=O)C(=O)N1CCC[C@H]1C(=O)N[C@@H](Cc1c[nH]c2ccccc12)C(=O)N[C@H](C(=O)N[C@@H](C)C(=O)N[C@@H](CCC(=O)O)C(=O)N[C@@H](Cc1c[nH]cn1)C(=O)N[C@H](C(=O)N[C@@H](CC(=O)O)C(=O)N[C@@H](CCC(N)=O)C(=O)N[C@H](C(=O)N[C@@H](CC(C)C)C(=O)N[C@@H](C)C(=O)N[C@@H](CO)C(=O)NCC(=O)N[C@@H](CC(N)=O)C(=O)N[C@@H](CC(=O)O)C(=O)N[C@H](C(=O)N[C@@H](CS)C(=O)O)[C@@H](C)CC)[C@@H](C)O)C(C)C)[C@@H](C)O [35mer] | -1.2 ± 0.4 kcal/mol | -9.3 ± 0.1 kcal/mol | – | – | – |
| GmPOPB (Galerina marginata CBS 339.88) | – | – | – | – | Km [2]: 24.4 ± 5.2 µM and 25 µM; kcat [2]: 0.00817 ± 0.0005 s⁻¹ and 0.00817 s⁻¹; kcat/Km [2]: 333 ± 67 M⁻¹ s⁻¹; Km [3]: 23 ± 11 µM; kcat [3]: 0.0533 ± 0.0067 s⁻¹; kcat/Km [3]: 2330 ± 1200 M⁻¹ s⁻¹; Km [4]: 380 µM; kcat [4]: 0.00967 s⁻¹; kcat/Km [4]: 16.7 ± 1.7 M⁻¹ s⁻¹ |
| IWGIGCNPW [9mer] | – | – | – | – | solubility ([5]; aqueous buffer, Tris pH 8.0 buffer with DTT): < 300 µM; Peptide solubility [5]: not sufficiently soluble for analysis |
| IWGIGCNPWT [10mer] | -2.4 ± 0.3 kcal/mol | -5.5 ± 0.1 kcal/mol | -3.1 ± 0.5 kcal/mol | 83 ± 17 µM | – |
| IWGIGCNPWTA [11mer] | – | -5.9 ± 0.3 kcal/mol | -1.5 ± 0.7 kcal/mol | 39 ± 18 µM | – |
| IWGIGCNPWTAE [12mer] | -5.3 ± 0.4 kcal/mol | -6.3 ± 0.1 kcal/mol | -1.0 ± 0.3 kcal/mol | 21 ± 5 µM | – |
| IWGIGCNPWTAEH [13mer] | -6.9 ± 0.2 kcal/mol | -7.3 ± 0.1 kcal/mol | -0.6 ± 0.2 kcal/mol | 2.4 ± 0.1 µM | Difference in affinity (reduction in binding) between the 35mer and the 13mer ([1]; ratio of ITC Kd values, GmPOPB_S577A): ~ 20 fold |
